Measured values: PubChem BioAssay AID330 (DTP/NCI, 2004)
Values joined by “and” are separate entries in the source; they are usually repeats but may differ in a detail not shown here. Identical values can stand only once. Inconclusive results and toxic doses are left out. Rule for the calls: active = survival T/C of 150% or more; inactive = T/C below 125% in these data.

Tested on: P388 leukemia ip, CD2F1 mice, survival T/C
Assay: NCI In Vivo Anticancer Drug Screen. Data for tumor model P388 Leukemia (intraperitoneal) in CD2F1 (CDF1) mice
Details: endpoint: median survival time, higher = longer survival
In short: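 Mice carrying the transplanted tumor received test compound or vehicle. Survival was recorded in each group, and the value is the treated-group measurement divided by that of the vehicle-treated control group.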

[1] = dose: 12.5 mg/kg/injection, schedule: Q01DX009 (ip), vehicle: saline with Tween-80
[2] = dose: 50.0 mg/kg/injection, schedule: Q01DX009 (ip), vehicle: saline with Tween-80
[3] = dose: 100.0 mg/kg/injection, schedule: Q01DX009 (ip), vehicle: saline with Tween-80
[4] = dose: 50.0 mg/kg/injection, schedule: Q01DX005 (ip), vehicle: saline with Tween-80
[5] = dose: 100.0 mg/kg/injection, schedule: Q01DX005 (ip), vehicle: saline with Tween-80
[6] = dose: 200.0 mg/kg/injection, schedule: Q01DX005 (ip), vehicle: saline with Tween-80
[7] = dose: 60.0 mg/kg/injection, schedule: Q01DX005 (ip), vehicle: Klucel (hydroxypropylcellulose) (HPC)
[8] = dose: 50.0 mg/kg/injection, schedule: Q01DX009 (ip), vehicle: Klucel (hydroxypropylcellulose) (HPC)
[9] = dose: 100.0 mg/kg/injection, schedule: Q01DX009 (ip), vehicle: Klucel (hydroxypropylcellulose) (HPC)
[10] = dose: 200.0 mg/kg/injection, schedule: Q01DX009 (ip), vehicle: Klucel (hydroxypropylcellulose) (HPC)
[11] = dose: 200.0 mg/kg/injection, schedule: Q01DX009 (ip), vehicle: saline with Tween-80
[12] = dose: 60.0 mg/kg/injection, schedule: Q01DX005 (ip), vehicle: saline with Tween-80
[13] = dose: 12.5 mg/kg/injection, schedule: Q01DX005 (ip), vehicle: Klucel (hydroxypropylcellulose) (HPC)
[14] = dose: 25.0 mg/kg/injection, schedule: Q01DX005 (ip), vehicle: Klucel (hydroxypropylcellulose) (HPC)
[15] = dose: 50.0 mg/kg/injection, schedule: Q01DX005 (ip), vehicle: Klucel (hydroxypropylcellulose) (HPC)
[16] = dose: 100.0 mg/kg/injection, schedule: Q01DX005 (ip), vehicle: Klucel (hydroxypropylcellulose) (HPC)
[17] = dose: 100.0 mg/kg/injection, schedule: Q01DX001 (ip), vehicle: saline with Tween-80
[18] = dose: 200.0 mg/kg/injection, schedule: Q01DX001 (ip), vehicle: saline with Tween-80
[19] = dose: 400.0 mg/kg/injection, schedule: Q01DX001 (ip), vehicle: saline with Tween-80

Measured: T/C

O=C(O)c1cc(C(=O)CCCC(=O)c2cc(C(=O)O)c(O)c3ccccc23)c2ccccc2c1O
inactive: [1] 100 % of control | dose: 25.0 mg/kg/injection, schedule: Q01DX009 (ip), vehicle: saline with Tween-80 100 % of control | [2] 87 % of control | [3] 93 % of control

O=C(CCN1CCCC1)Nc1nc(-c2ccc(Cl)cc2)cs1
inactive: [4] 102 % of control | [5] 93 % of control | [6] 94 % of control

N#CC1CCN(Cc2ccccc2)C(C#N)C1 (configuration not stated)
inactive: dose: 15.0 mg/kg/injection, schedule: Q01DX005 (ip), vehicle: Klucel (hydroxypropylcellulose) (HPC) 105 % of control | dose: 30.0 mg/kg/injection, schedule: Q01DX005 (ip), vehicle: Klucel (hydroxypropylcellulose) (HPC) 106 % of control | [7] 102 % of control and 106 % of control

CCSc1nc2ccc(CN3C(=O)c4ccccc4C3=O)cc2s1
inactive: [8] 92 % of control | [9] 89 % of control | [10] 86 % of control

CCCCC/C=N/N(C)C=O
inactive: dose: 100.0 mg/kg/injection, schedule: Q04DX002 (ip), vehicle: saline 103 % of control | dose: 200.0 mg/kg/injection, schedule: Q04DX002 (ip), vehicle: saline 103 % of control | dose: 400.0 mg/kg/injection, schedule: Q04DX002 (ip), vehicle: saline 100 % of control

CN1CCN(C)C(=O)C1=O
inactive: dose: 12.5 mg/kg/injection, schedule: Q04DX003 (ip), vehicle: suspension in saline 108 % of control | dose: 25.0 mg/kg/injection, schedule: Q04DX003 (ip), vehicle: suspension in saline 115 % of control | dose: 50.0 mg/kg/injection, schedule: Q04DX003 (ip), vehicle: suspension in saline 110 % of control

Nc1nc2c(-c3ccc([N+](=O)[O-])cc3)nnn2c2ccccc12
inactive: [2] 95 % of control | [3] 86 % of control | [11] 95 % of control

CC(=O)NC(C)c1ccc2ccccc2c1 (configuration not stated)
inactive: [12] 97 % of control | dose: 120.0 mg/kg/injection, schedule: Q01DX005 (ip), vehicle: saline with Tween-80 96 % of control | dose: 240.0 mg/kg/injection, schedule: Q01DX005 (ip), vehicle: saline with Tween-80 97 % of control

O=[N+]([O-])C1(Br)COC(c2cccc(O)c2)OC1 (configuration not stated)
inactive: dose: 3.12 mg/kg/injection, schedule: Q01DX009 (ip), vehicle: saline with Tween-80 99 % of control | dose: 6.25 mg/kg/injection, schedule: Q01DX009 (ip), vehicle: saline with Tween-80 97 % of control | [1] 111 % of control and 94 % of control

CC(=O)OC1CN(C)CC=C1c1ccccc1 (configuration not stated)
inactive: dose: 15.0 mg/kg/injection, schedule: Q01DX005 (ip), vehicle: saline with Tween-80 91 % of control | dose: 30.0 mg/kg/injection, schedule: Q01DX005 (ip), vehicle: saline with Tween-80 97 % of control | [12] 100 % of control and 97 % of control

Oc1ccc(CCC2CCC(c3ccc(O)cc3)CO2)cc1 (configuration not stated)
inactive: [13] 97 % of control | [14] 103 % of control | [15] 86 % of control | [16] 89 % of control | dose: 200.0 mg/kg/injection, schedule: Q01DX005 (ip), vehicle: Klucel (hydroxypropylcellulose) (HPC) 89 % of control

CCCCCCCCCCCC(=O)OC/C=C/COC(=O)c1ccccc1
inactive: [8] 100 % of control | [9] 108 % of control | [10] 96 % of control

N/C=N/OC(c1ccccc1)c1ccccc1
inactive: dose: 50.0 mg/kg/injection, schedule: Q01DX005 (ip), vehicle: Klucel + Tween-80 99 % of control | dose: 100.0 mg/kg/injection, schedule: Q01DX005 (ip), vehicle: Klucel + Tween-80 102 % of control | dose: 200.0 mg/kg/injection, schedule: Q01DX005 (ip), vehicle: Klucel + Tween-80 98 % of control

CCCCOC(OCCCC)C(OCCCC)OCCCC
inactive: [3] 105 % of control | dose: 100.0 mg/kg/injection, schedule: Q04DX003 (ip), vehicle: saline sonified 95 % of control | [11] 110 % of control | dose: 200.0 mg/kg/injection, schedule: Q04DX003 (ip), vehicle: saline sonified 100 % of control | dose: 400.0 mg/kg/injection, schedule: Q01DX009 (ip), vehicle: saline with Tween-80 105 % of control | dose: 400.0 mg/kg/injection, schedule: Q04DX003 (ip), vehicle: saline sonified 104 % of control

Cc1ccc(S(=O)(=O)OCCn2nc(C)c3c(C)cc(=O)oc32)cc1
inactive: [8] 103 % of control | [9] 107 % of control | [10] 100 % of control

COc1cc2c(c(C(C)(C)C)c1)OC1(O)C2=CC(=O)C=C1C(C)(C)C (configuration not stated)
inactive: dose: 6.25 mg/kg/injection, schedule: Q01DX005 (ip), vehicle: Klucel (hydroxypropylcellulose) (HPC) 120 % of control | [13] 120 % of control | [14] 114 % of control | [15] 110 % of control | [16] 107 % of control

O=C1C(CN2CCCC2)C(O)=C(c2ccccc2)N1c1ccccc1 (configuration not stated)
inactive: [17] 102 % of control | [18] 92 % of control | [19] 92 % of control

O=C(/C(=C\c1ccc(F)cc1)S(=O)(=O)c1ccc(Br)cc1)c1ccccc1
inactive: [4] 100 % of control | [5] 97 % of control | [6] 95 % of control

Cc1ccc(NC(=O)Oc2cc(C)c(C)cc2Cl)c([N+](=O)[O-])c1
inactive: [2] 107 % of control | [3] 104 % of control | [11] 112 % of control

C/C(=C1\N=C(c2ccccc2)OC1=O)c1ccccc1
inactive: [4] 96 % of control | [5] 92 % of control | [6] 95 % of control

CC(O)CCOC(C[N+](=O)[O-])C(Cl)(Cl)Cl (configuration not stated)
inactive: [2] 101 % of control and 104 % of control | [3] 117 % of control | [11] 102 % of control and 120 % of control

C/C(=N\NC(=O)c1ccccc1)c1cccc(/C(C)=N/NC(=O)c2ccccc2)n1.CC(=O)[O-].CC(=O)[O-].[Zn+2]
inactive: [17] 95 % of control | [18] 104 % of control | [19] 100 % of control

CCOC(=O)C(=O)C1Cc2c(C)cc3cnc(OCC)cc3c2C1=O (configuration not stated)
inactive: dose: 12.5 mg/kg/injection, schedule: Q01DX009 (ip), vehicle: distilled water + Tween-80 92 % of control | dose: 25.0 mg/kg/injection, schedule: Q01DX009 (ip), vehicle: distilled water + Tween-80 89 % of control | dose: 100.0 mg/kg/injection, schedule: Q01DX009 (ip), vehicle: distilled water + Tween-80 92 % of control | dose: 200.0 mg/kg/injection, schedule: Q01DX009 (ip), vehicle: distilled water + Tween-80 92 % of control

Cc1c2c(n(C)c1C)C(=O)C=CC2=O
inactive: dose: 50.0 mg/kg/injection, schedule: Q01DX001 (ip), vehicle: Klucel (hydroxypropylcellulose) (HPC) 100 % of control | dose: 100.0 mg/kg/injection, schedule: Q01DX001 (ip), vehicle: Klucel (hydroxypropylcellulose) (HPC) 113 % of control

CCN(CC)C/C=C(/C)CCC=C(C)C
inactive: dose: 5.0 mg/kg/injection, schedule: Q04DX002 (ip), vehicle: saline with Tween-80 103 % of control | dose: 10.0 mg/kg/injection, schedule: Q04DX002 (ip), vehicle: saline with Tween-80 99 % of control | dose: 20.0 mg/kg/injection, schedule: Q04DX002 (ip), vehicle: saline with Tween-80 95 % of control

N/C(=C\c1nc2ccccc2nc1-c1ccccc1)c1ccccc1Cl
inactive: [7] 100 % of control | dose: 120.0 mg/kg/injection, schedule: Q01DX005 (ip), vehicle: Klucel (hydroxypropylcellulose) (HPC) 91 % of control

CC1CCC2(CC1=O)C(C)CC(=O)C2C(C)C (configuration not stated)
inactive: [8] 112 % of control | [9] 114 % of control | dose: 100.0 mg/kg/injection, schedule: Q04DX003 (ip), vehicle: other 95 % of control | [10] 98 % of control | dose: 200.0 mg/kg/injection, schedule: Q04DX003 (ip), vehicle: other 90 % of control | dose: 400.0 mg/kg/injection, schedule: Q04DX003 (ip), vehicle: other 100 % of control

CC1(C)OC(=O)C(=Cc2ccc([N+](=O)[O-])s2)C(=O)O1
inactive: [2] 103 % of control and 110 % of control | [3] 109 % of control and 122 % of control | [11] 111 % of control and 124 % of control

S=C(Nc1ccc(I)cc1)SCc1ccc2c(c1)OCO2
inactive: dose: 50.0 mg/kg/injection, schedule: Q01DX009 (ip), vehicle: suspension in saline 110 % of control | dose: 100.0 mg/kg/injection, schedule: Q01DX009 (ip), vehicle: suspension in saline 104 % of control | dose: 200.0 mg/kg/injection, schedule: Q01DX009 (ip), vehicle: suspension in saline 101 % of control
